Test results from patent US6784192B2, “Piperidine compound and pharmaceutical composition thereof” (Eisai Co., Ltd., priority 2000, dated 2004).
Where a name gives a salt, the structure may show the parent alone. Read-outs that look alike come from different tables or passages of the source.

Experiments:
[1] = test system: spontaneous nerve discharge of cut left saphenous nerve; experiment: Suppression of spontaneous nerve discharge (ectopic firing); assay type: in vivo; conditions: Test Example 5, rat, intravenous catheter, urethane anesthetized; for ED50: read-out: Ectopic Firing (ID50 mg/kg)
Procedure: In order to assess the suppression action for spontaneous nerve discharge, the experiment was carried out by a method below, referring to “Burchiel, K J., Exp. Nuerol., 102, 249-253 (1988)”. Namely, for the rat in which spontaneous discharge was observed, the left saphenous nerve was cut off nearby knee articulatio before 1 week or more, and around 3 mm of the nerve was cut off so that the nerve was not adhered again. The left saphenous nerve was exposed under urethane (1 g/kg body weight) anesthetized, and about 1 cm of adjacent portion from the cut portion was peeled from a periphery tissue. Further, a catheter was preliminarily inserted in the vein of a right neck for administration of a compound. The peeled nerve was mounted on a platinum hook electrode, and liquid paraffin was put on it so that the nerve was not dried. The electrode was connected with a fine electrode amplifier, and the value was recorded on a computer through an AD/converter from an oscilloscope. The nerve discharge recorded was assessed by the number of ignition per 10 seconds using an analysis soft (AcqKnowledge).

[2] = test system: sodium channel of synaptosome of rat cerebral cortex; experiment: Assessment for sodium channel of synaptosome of rat cerebral cortex (SBFI); assay type: cell-based
Procedure: In the present experiment the synaptosome which was extracted from rat cerebral cortex was used. After sodium ion-sensitive dye, SBFI was taken in, the synaptosome was reacted with the respective tested substances (3 samples in 6 concentrations) at room temperature for 15 minutes in a 96 wells plate. The sodium channel inhibitory activity was measured using FDSS2000 of HAMAMATSU Photonics Co., Ltd. The sodium ion concentration in the synaptosome was measured once per 5 seconds using the fluorescent intensity of SBFI as an index. After measuring the control value 10 times, Veratridine was added so that the final concentration was 20 μM, and further measurement was carried out 30times. The inhibitory activity value of the tested substances for sodium channel was calculated, setting the action only by a measurement solution without the tested substance, as 0%, and the inhibitory activity caused by 2 μM of TTX which was a positive control, as 100%, as an inhibitory activity value corresponding to this action, using the increase of the fluorescent intensity of SBFI to the control value which was generated after addition of Veratridine, as an index.

rabbit atrial muscle = experiment: Assessment for rabbit atrial muscle, Vmax; conditions: Test Example 4, right atrial muscle, stimulation frequency 4 Hz, 15 minutes
Procedure: The specimen of the right atrial muscle which was enucleated from rabbit was used for the present experiment. The electrical stimulation was applied for the right atrial muscle which was enucleated, under conditions: a stimulation duration of 1 mess; a stimulation frequency of 4 Hz; and a stimulation intensity of about 1.2-fold of the threshold. The stimulation was provided from 30 minutes to 60 minutes before start of the experiment, and the condition of the specimen was stabilized. The action potential was recorded according to a glass microelectrode method. 3 M KCl was charged in the glass electrode, inserted in the specimen of the right atrium, and the action potential was recorded. Vmax is the parameter of the maximum upstroke slope of the action potential recorded, and a value which was automatically calculated by an action potential analysis soft (CAPA 1.23 manufactured by Physiotec. Co., Ltd.) was used. After the action potential in a normal Tyrode solution was recorded as control, the action potential after flowing the tested substances at respective concentrations for 15 minutes was recorded. The action of the tested substance for Vmax was calculated as an IC50 value.

[3] = read-out: SBFI (IC50 μM); Test Example 3; Veratridine 20 μM; 2 μM TTX as 100%
[4] = Test Example 3; Veratridine 20 μM; 2 μM TTX as 100%; read-out: SBFI (IC50 μM)

Row | Compound | ED50 [1] [mg/kg] | IC50 [2, 3] [µM] | IC50 (rabbit atrial muscle; Oryctolagus cuniculus, 0.25 h) [µM] | Ectopic Firing (ID50 mg/kg) [1] [mg/kg] | IC50 [2, 4] [µM] | IC50 (rabbit atrial muscle) [µM]
1 | Cc1ccccc1CCC1CCN(Cc2ccc[nH]c2=O)CC1 [Example 285, 1-[(2-Oxo-1,2-dihydro-3-pyridinyl)methyl]-4-[2-(2-methylphenyl)ethyl]piperidine] | 0.13 | 7.7 | 2.9 | – | – | –
2 | O=c1[nH]cc(Br)cc1CN1CCC(CCc2cccc3c2OCO3)CC1 [Example 291, 1-[(5-Bromo-2-oxo-1,2-dihydro-3-pyridinyl)methyl]-4-[2-[2,3-(methylenedioxy)phenyl]ethyl]piperidine] | – | – | – | 0.1 | 14.5 | 6
3 | O=c1[nH]cc(Cl)cc1CN1CCC(CCc2ccccc2OCc2ccccc2)CC1 [Example 299] | 0.1 | 5.3 | 50 | – | – | –
4 | O=c1[nH]cc(Cl)cc1CN1CCC(CCc2ccccc2OCC2CCCCC2)CC1 [Example 301, 1-[(5-Chloro-2-oxo-1,2-dihydro-3-pyridinyl)methyl]-4-[2-[2-(cyclohexylmethyloxy)phenyl]ethyl]piperidine] | 0.18 | 6.5 | 100 | – | – | –
5 | O=C(O)C(=O)O.O=c1[nH]cccc1CN1CCC(CCc2ccccc2OCC2CCCCC2)CC1 [Example 302, 1-[(2-Oxo-1,2-dihydro-3-pyridinyl)methyl]-4-[2-[2-(cyclohexylmethyloxy)phenyl]ethyl]piperidine oxalate] | 0.14 | 1.2 | 22.5 | – | – | –
6 | O=C(O)C(=O)O.O=c1[nH]cccc1CN1CCC(CCc2ccccc2CCc2ccccc2)CC1 [Example 306, 1-[(2-Oxo-1,2-dihydro-3-pyridinyl)methyl]-4-[[2-(2-phenylethyl)phenyl]ethyl]piperidine oxalate] | 0.17 | 1.3 | 1.9 | – | – | –
7 | CC(C)COc1ccccc1CCC1CCN(Cc2ccc[nH]c2=O)CC1.O=C(O)C(=O)O [Example 308, 1-[(2-Oxo-1,2-dihydro-3-pyridinyl)methyl]-4-[2-[2-(isobutyloxy)phenyl]ethyl]piperidine oxalate] | 0.22 | 0.5 | 3.1 | – | – | –
8 | O=C(O)C(=O)O.O=c1[nH]cccc1CN1CCC(CCc2ccccc2OCCc2ccccc2)CC1 [Example 309, 1-[(2-Oxo-1,2-dihydro-3-pyridinyl)methyl]-4-[2-[2-(2-phenylethoxy)phenyl]ethyl]piperidine oxalate] | 0.19 | 1 | 6.3 | – | – | –
9 | O=C(O)C(=O)O.O=c1[nH]cccc1CN1CCC(CCc2ccccc2OCC2CCCC2)CC1 [Example 311, 1-[(2-Oxo-1,2-dihydro-3-pyridinyl)methyl]-4-[2-[2-(cyclopentylmethyloxy)phenyl]ethyl]piperidine oxalate] | 0.13 | 0.7 | 2 | – | – | –
10 | Cl.Cl.O=c1[nH]cccc1CN1CCC(CCc2ccccc2NCc2ccccc2)CC1 [Example 313, 1-[(2-Oxo-1,2-dihydro-3-pyridinyl)methyl]-4-[2-[2-(benzylamino)phenyl]ethyl]piperidine dihydrochloride] | 0.16 | 1.5 | 8.6 | – | – | –
11 | O=c1[nH]cc(Cl)cc1CN1CCC(CCc2cccc3c2OCO3)CC1 [Example 319] | 0.082 | 10.2 | 10 | – | – | –
12 | O=c1[nH]cc(Cl)cc1CN1CCC(CCc2ccccc2F)CC1 [Example 320] | 0.041 | 17 | 14.8 | – | – | –
13 | CC(C)COc1ccccc1CCC1CCN(Cc2cc(Cl)c[nH]c2=O)CC1.O=C(O)C(=O)O [Example 323, 1-[(5-Chloro-2-oxo-1,2-dihydro-3-pyridinyl)methyl]-4-[2-[2-(isobutyloxy)phenyl]ethyl]piperidine oxalate] | 0.083 | 4.8 | 3.9 | – | – | –
14 | O=C(O)C(=O)O.O=c1[nH]cccc1CN1CCC(CCc2ccccc2OC(F)(F)F)CC1 [Example 326, 1-[(2-Oxo-1,2-dihydro-3-pyridinyl)methyl]-4-[2-[2-(trifluoromethoxy)phenyl]ethyl]piperidine oxalate] | 0.18 | 1.9 | 3.98 | – | – | –
15 | O=c1[nH]cccc1CN1CCC(C=C(c2ccccc2)c2ccccc2)CC1 [Example 333, 1-[(2-Oxo-1,2-dihydro-3-pyridinyl)methyl]-4-(2,2-diphenyl-1-ethenyl)piperidine] | 0.15 | 5.4 | 4.9 | – | – | –
16 | O=C(O)C(=O)O.O=c1[nH]cccc1CN1CCC(/C=C/c2ccccc2OCc2ccccc2)CC1 [Example 338, 1-[(2-Oxo-1,2-dihydro-3-pyridinyl)methyl]-4-[(E)-2-[2-(benzyloxy)phenyl]-1-ethenyl]piperidine oxalate] | 0.19 | 1.2 | 11.4 | – | – | –
17 | O=c1[nH]cc(Cl)cc1CN1CCC(COc2ccc(F)cc2F)CC1 [Example 370, 1-[(5-Chloro-2-oxo-1,2-dihydro-3-pyridinyl)methyl]-4-[(2,4-difluorophenoxy)methyl]piperidine] | 0.081 | 33.6 | 45 | – | – | –
18 | O=c1[nH]cc(Cl)cc1CN1CCC(COc2cc(F)ccc2F)CC1 [Example 372, 1-[(5-Chloro-2-oxo-1,2-dihydro-3-pyridinyl)methyl]-4-[(2,5-difluorophenoxy)methyl]piperidine] | 0.11 | 21.8 | 9.3 | – | – | –
19 | O=c1[nH]cccc1CN1CCC(COc2ccccc2Cl)CC1 [Example 376, 1-[(2-Oxo-1,2-dihydro-3-pyridinyl)methyl]-4-[(2-chlorophenoxy)methyl]piperidine] | 0.07 | 20.3 | – | – | – | –
20 | O=c1[nH]c2ccccc2cc1CN1CCC(CCc2cccc3c2OCO3)CC1 [Example 380, 1-[(2-Oxo-1,2-dihydro-3-quinolinyl)methyl]-4-[2-[2,3-(methylenedioxy)phenyl]ethyl]piperidine] | – | – | – | 0.1 | 3.9 | 8.6
21 | O=c1[nH]c2ccccc2cc1CN1CCC(CCc2cccc(-c3ccccc3)c2)CC1 [Example 381, 1-[(2-Oxo-1,2-dihydro-3-quinolinyl)methyl]-4-[2-(3-(phenylphenyl)ethyl]piperidine oxalate] | 0.56 | 3 | 100 | – | – | –
